Data: patent US12054498B2, “Heteroaromatic macrocyclic ether chemotherapeutic agents” (Nuvalent, Inc., priority 2020, dated 2024)

Experiments:
ALK-wt = target: T1, ALK-wt (Homo sapiens, UniProt Q9UM73); experiment: Biochemical kinase assay, ALK-wt kinase domain; details: apparent inhibitory constant, Morrison equation; ATP 2 mM in substrate solution; read-out: ALK-wt Ki^app
T1 construct: purchased Carna 08-518
In short: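 Apparent Ki values come from fitting initial reaction rates against inhibitor concentration to the Morrison equation. Rates were taken from the linear phase of fluorogenic substrate phosphorylation (AQT0101 for ALK and ROS1, AQT0104 for TRKA; 26 μM in substrate solution with 2 mM ATP), monitored at 485 nm over 120 min at 30° C.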

ROS1-wt = target: T2, ROS1-wt (Homo sapiens, UniProt P08922); experiment: Biochemical kinase assay, ROS1-wt kinase domain; details: apparent inhibitory constant, Morrison equation; ATP 2 mM in substrate solution; read-out: ROS1-wt Ki^app
T2 construct: purchased Carna 08-163
T2 sequence (P08922 1945-2222 limits assumed): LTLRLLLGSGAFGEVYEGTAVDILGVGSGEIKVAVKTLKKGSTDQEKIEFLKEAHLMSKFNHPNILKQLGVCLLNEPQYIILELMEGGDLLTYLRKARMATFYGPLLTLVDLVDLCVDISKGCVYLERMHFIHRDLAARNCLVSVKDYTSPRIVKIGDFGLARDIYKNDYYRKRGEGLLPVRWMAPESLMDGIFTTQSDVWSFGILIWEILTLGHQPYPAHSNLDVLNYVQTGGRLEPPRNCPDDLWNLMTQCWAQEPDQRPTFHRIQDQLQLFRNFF
In short: (§1)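 Compounds, as 100-fold DMSO stocks, were dispensed first, then substrate mix was added (ATP 2 mM, AQT0101 26 μM, in 50 mM HEPES pH 7.5/10 mM MgCl2). Reactions ran at 30 °C with fluorescence logged every 2 min over 120 min. Apparent inhibition constants came from fitting rates to Morrison's tight-binding equation.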

[1] = target: T3, Ba/F3 cells EML4-ALK L1196M/G1202R (variant 1) (Homo sapiens, UniProt Q9UM73, G1202R/L1196M); experiment: Ba/F3 cell proliferation assay, EML4-ALK L1196M/G1202R (variant 1); format: cell-based; details: 72 hours, CellTiter-Glo
T3 construct: echinoderm microtubule-associated protein-like 4 (EML4) gene and the ALK tyrosine kinase domain; host or cells: Ba/F3 (RIKEN), retroviral pMSCV-puro; the other entry of the earlier key: EML4 (Q9HC35, Echinoderm microtubule-associated protein-like 4)
T3 sequence (Q9UM73 with tags, fused parts or gaps L1196M/G1202R): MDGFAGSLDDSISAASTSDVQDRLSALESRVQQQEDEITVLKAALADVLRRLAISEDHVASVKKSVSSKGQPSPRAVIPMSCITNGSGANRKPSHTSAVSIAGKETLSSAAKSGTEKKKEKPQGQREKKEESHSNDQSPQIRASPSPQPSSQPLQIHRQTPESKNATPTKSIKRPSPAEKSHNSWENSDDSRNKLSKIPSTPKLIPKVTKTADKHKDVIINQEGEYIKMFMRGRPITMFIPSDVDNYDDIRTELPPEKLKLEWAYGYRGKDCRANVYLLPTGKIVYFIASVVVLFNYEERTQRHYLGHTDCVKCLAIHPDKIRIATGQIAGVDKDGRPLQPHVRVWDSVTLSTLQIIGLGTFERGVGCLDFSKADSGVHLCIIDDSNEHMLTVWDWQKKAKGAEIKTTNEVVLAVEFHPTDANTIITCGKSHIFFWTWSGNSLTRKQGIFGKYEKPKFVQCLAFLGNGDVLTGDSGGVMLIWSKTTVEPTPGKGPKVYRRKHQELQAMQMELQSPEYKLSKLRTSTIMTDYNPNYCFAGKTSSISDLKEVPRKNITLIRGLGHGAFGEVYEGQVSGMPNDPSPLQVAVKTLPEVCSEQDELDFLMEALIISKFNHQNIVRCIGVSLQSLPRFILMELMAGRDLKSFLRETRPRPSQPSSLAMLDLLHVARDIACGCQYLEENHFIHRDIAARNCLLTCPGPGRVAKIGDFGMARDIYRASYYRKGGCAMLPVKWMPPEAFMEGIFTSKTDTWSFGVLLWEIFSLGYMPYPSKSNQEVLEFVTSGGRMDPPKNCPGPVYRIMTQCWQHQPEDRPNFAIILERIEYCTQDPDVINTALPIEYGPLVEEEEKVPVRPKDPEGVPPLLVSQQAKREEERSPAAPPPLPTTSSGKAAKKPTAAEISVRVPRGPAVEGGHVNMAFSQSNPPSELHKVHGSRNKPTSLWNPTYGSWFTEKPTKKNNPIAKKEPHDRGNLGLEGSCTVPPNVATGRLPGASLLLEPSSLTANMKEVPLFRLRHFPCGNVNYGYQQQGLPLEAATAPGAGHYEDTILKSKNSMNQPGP
In short: (§2)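 Luminescence from CellTiter-Glo after 72 hours of compound exposure measured viability of IL-3-independent Ba/F3 cells carrying the retrovirally introduced fusion. Cells were plated at 1,000 per well one day before 3-fold serial dilutions were added. IC50 values came from four-parameter logistic regression.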

[2] = target: T4, Ba/F3 cells EML4-ALK wt (variant 1) (Homo sapiens, UniProt Q9UM73); experiment: Ba/F3 cell proliferation assay, EML4-ALK wt (variant 1); format: cell-based; details: 72 hours, CellTiter-Glo
T4 construct: echinoderm microtubule-associated protein-like 4 (EML4) gene and the ALK tyrosine kinase domain; host or cells: Ba/F3 (RIKEN), retroviral pMSCV-puro; the other entry of the earlier key: EML4 (Q9HC35, Echinoderm microtubule-associated protein-like 4)
T4 sequence (Q9UM73 with tags, fused parts or gaps): as the sequence (Q9UM73 with tags, fused parts or gaps L1196M/G1202R) above, with M635L, R641G counted along it
In short: as §2

[3] = target: T5, Ba/F3 cells CD74-ROS1 wild-type (wt) (Homo sapiens, UniProt P08922); experiment: Ba/F3 cell proliferation assay, CD74-ROS1 wild-type; format: cell-based; details: 72 hours, CellTiter-Glo
T5 construct: fusion of the C-terminus of ROS1 with the N-terminus of various partner proteins; host or cells: Ba/F3 (RIKEN), retroviral pMSCV-puro; the other entry of the earlier key: CD74 (P04233, HLA class II histocompatibility antigen gamma chain)
T5 sequence (P08922 1883-2347 limits assumed): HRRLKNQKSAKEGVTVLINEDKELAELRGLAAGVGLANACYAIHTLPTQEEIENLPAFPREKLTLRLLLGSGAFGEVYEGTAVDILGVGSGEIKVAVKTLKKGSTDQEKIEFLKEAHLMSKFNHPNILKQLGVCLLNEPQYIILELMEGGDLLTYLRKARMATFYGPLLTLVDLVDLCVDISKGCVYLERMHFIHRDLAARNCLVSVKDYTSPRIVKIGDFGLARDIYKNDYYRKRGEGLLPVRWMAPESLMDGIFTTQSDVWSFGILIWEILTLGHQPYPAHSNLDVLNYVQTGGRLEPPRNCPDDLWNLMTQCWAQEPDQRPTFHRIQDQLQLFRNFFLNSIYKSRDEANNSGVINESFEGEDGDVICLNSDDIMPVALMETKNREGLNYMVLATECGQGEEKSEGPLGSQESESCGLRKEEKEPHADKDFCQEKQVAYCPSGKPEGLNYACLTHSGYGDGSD
In short: (§3)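 First, retrovirally infected Ba/F3 cells were made IL-3-independent and selected with puromycin (0.8 μg/mL). Next, cells were plated and rested one day. Then compounds in 3-fold dilutions were added for 72 hours before CellTiter-Glo readout.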

ALK L1196M/G1202R = target: T6, ALK L1196M/G1202R (Homo sapiens, UniProt Q9UM73, G1202R/L1196M); experiment: Biochemical kinase assay, ALK L1196M/G1202R kinase domain; details: apparent inhibitory constant, Morrison equation; ATP 2 mM in substrate solution; read-out: ALK-L1196M-G1202R Ki^app
T6 construct: purchased SignalChem A19-12NG
T6 sequence (Q9UM73 1116-1392 L1196M/G1202R limits assumed): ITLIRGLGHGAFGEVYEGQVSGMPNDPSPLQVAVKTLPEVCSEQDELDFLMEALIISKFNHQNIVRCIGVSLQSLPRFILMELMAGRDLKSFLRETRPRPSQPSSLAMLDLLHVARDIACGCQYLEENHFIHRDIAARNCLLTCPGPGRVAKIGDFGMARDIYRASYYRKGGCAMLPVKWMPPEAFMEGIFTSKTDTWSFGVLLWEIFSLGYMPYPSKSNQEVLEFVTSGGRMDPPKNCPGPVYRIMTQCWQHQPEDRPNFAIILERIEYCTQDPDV
In short: (§4)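 Kinase domains (in kinase solution: ROS1-G2032R 0.5 nM, ROS1-wt 0.6 nM, TRKA 1 nM, ALK L1196M/G1202R 3 nM) were mixed with compound and a substrate solution of 2 mM ATP plus 26 μM fluorogenic AQT0101 (ALK, ROS1) or AQT0104 (TRKA) in HEPES pH 7.5/MgCl2. Fluorescence was followed for 120 min at 30° C; Ki^app was obtained by Morrison fit of initial rates.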

[4] = target: T7, Ba/F3 cells CD74-ROS1 G2032R (Homo sapiens, UniProt P08922, G2032R); experiment: Ba/F3 cell proliferation assay, CD74-ROS1 G2032R; format: cell-based; details: 72 hours, CellTiter-Glo
T7 construct: fusion of the C-terminus of ROS1 with the N-terminus of various partner proteins; host or cells: Ba/F3 (RIKEN), retroviral pMSCV-puro; the other entry of the earlier key: CD74 (P04233, HLA class II histocompatibility antigen gamma chain)
T7 sequence (P08922 1883-2347 G2032R limits assumed): as the sequence (P08922 1883-2347 limits assumed) above, with G150R counted along it
In short: as §3

[5] = test system: TPM3-NTRK1-wt IC50 / primary target IC50 (e.g. CD74-ROS1-wt); experiment: TRKA selectivity in Ba/F3 cells (TRKA potency divided by primary target potency); format: cell-based; details: for TPM3-NTRK1-wt/CD74-ROS1-G2032R selectivity ratio: TRKA potency / CD74-ROS1-G2032R potency; for TPM3-NTRK1-wt/CD74-ROS1-wt selectivity ratio: TRKA potency / CD74-ROS1-wt potency; for TPM3-NTRK1-wt/EML4-ALK-L1196M-G1202R selectivity ratio: TRKA potency / EML4-ALK-L1196M-G1202R potency; for TPM3-NTRK1-wt/EML4-ALK-wt selectivity ratio: TRKA potency / EML4-ALK-wt potency
Method: TRKA selectivity was calculated by dividing a compound's TRKA potency by its primary target potency (e.g. TPM3-NTRK1-wt IC50/CD74-ROS1-wt IC50). Compound selectivity can be interpreted by binning ratio values: bin A for very high selectivity, ratio >30-fold; bin B for high selectivity, ratio >10-fold; bin C for moderate selectivity, ratio ≥1; and bin D for low selectivity, ratio <1. […] (nd=not determined).

Ba/F3 cells TPM3-TRKA = target: T8, Ba/F3 cells TPM3-TRKA (Homo sapiens, UniProt P04629); experiment: Ba/F3 cell proliferation assay, TPM3-TRKA; format: cell-based; details: 72 hours, CellTiter-Glo, read-out: TPM3-NTRK1-wt IC50
T8 construct: host or cells: Ba/F3 (RIKEN), retroviral pMSCV-puro; the other entry of the earlier key: TPM3 (P06753, Tropomyosin alpha-3 chain)
T8 sequence (P04629 510-796 limits assumed): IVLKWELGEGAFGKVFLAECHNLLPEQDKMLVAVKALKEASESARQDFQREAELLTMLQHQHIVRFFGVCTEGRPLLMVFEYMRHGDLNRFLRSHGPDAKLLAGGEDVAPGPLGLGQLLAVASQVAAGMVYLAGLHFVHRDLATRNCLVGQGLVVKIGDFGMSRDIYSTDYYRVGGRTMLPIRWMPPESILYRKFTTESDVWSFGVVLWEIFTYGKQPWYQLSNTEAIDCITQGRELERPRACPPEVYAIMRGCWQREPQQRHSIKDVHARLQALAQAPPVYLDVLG
In short: as §2

TRKA-wt = target: T9, TRKA-wt (Homo sapiens, UniProt P04629); experiment: Biochemical kinase assay, TRKA-wt kinase domain; details: apparent inhibitory constant, Morrison equation; ATP 2 mM in substrate solution; read-out: TRKA-wt Ki^app
T9 construct: or TRKA-wt (1 nM, BPS Bio, 40280) kinase domains in buffer; purchased BPS Bio 40280
T9 sequence (P04629 510-781 limits assumed): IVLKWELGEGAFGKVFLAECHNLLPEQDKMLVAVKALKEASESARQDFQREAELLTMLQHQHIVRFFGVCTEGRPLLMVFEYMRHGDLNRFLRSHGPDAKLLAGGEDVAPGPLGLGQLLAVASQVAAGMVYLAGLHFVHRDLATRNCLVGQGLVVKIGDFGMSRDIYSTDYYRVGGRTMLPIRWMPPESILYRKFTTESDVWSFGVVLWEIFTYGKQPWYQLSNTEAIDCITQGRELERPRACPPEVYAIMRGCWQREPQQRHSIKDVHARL
In short: as §4

ROS1-G2032R = target: T10, ROS1-G2032R (Homo sapiens, UniProt P08922, G2032R); experiment: Biochemical kinase assay, ROS1-G2032R kinase domain; details: apparent inhibitory constant, Morrison equation; ATP 2 mM in substrate solution; read-out: ROS1-G2032R Ki^app
T10 construct: purchased SignalChem R14-12BG
T10 sequence (P08922 1945-2222 G2032R limits assumed): as the sequence (P08922 1945-2222 limits assumed) above, with G88R counted along it
In short: as §1

T1 sequence (Q9UM73 1116-1392 limits assumed): as the sequence (Q9UM73 1116-1392 L1196M/G1202R limits assumed) above, with M81L, R87G counted along it

SMILES	Ki (ALK-wt)	Ki (ROS1-wt)	IC50 [1]	IC50 [2]	IC50 [3]	Ki (ALK L1196M/G1202R)	IC50 [4]	IC50 (Ba/F3 cells TPM3-TRKA)	Ki (TRKA-wt)	Ki (ROS1-G2032R)	TPM3-NTRK1-wt/CD74-ROS1-G2032R selectivity ratio [5]	TPM3-NTRK1-wt/CD74-ROS1-wt selectivity ratio [5]	TPM3-NTRK1-wt/EML4-ALK-L1196M-G1202R selectivity ratio [5]	TPM3-NTRK1-wt/EML4-ALK-wt selectivity ratio [5]
CCn1ncc2c1-c1cnc(N)c(c1)O[C@H](C)c1cc(F)ccc1-n1nc(C)nc1C2 [Example 40, (19R)-3-ethyl-16-fluoro-10,19-dimethyl-20-oxa-3,4,9,11,12,23-hexaazapentacyclo[19.3.1.0^2,^6.0^8,^12.0^13,^18] pentacosa 1(24),2(6),4,8,10,13,15,17,21(25),22-decaen-22-amine]	< 50 nM	< 50 nM	50 to 500 nM	0.1 to 50 nM	0.1 to 50 nM	< 50 nM	0.1 to 50 nM	50 to 500 nM	50 to 500 nM	< 50 nM	A (bin A for very high selectivity, ratio >30-fold)	A (bin A for very high selectivity, ratio >30-fold)	C (bin C for moderate selectivity, ratio ≥1)	B (bin B for high selectivity, ratio >10-fold)
C[C@H]1Oc2cc(cnc2N)-c2c(cnn2C2CCC2)Cc2ncnn2-c2ccc(F)cc21 [Example 41, (19R)-3-cyclobutyl-16-fluoro-19-methyl-20-oxa-3,4,9,11,12,23-hexaazapentacyclo[19.3.1.0^2,^6.0^8,^12.0^13,^18]pentacosa-1(24),2(6),4,8,10,13,15,17,21(25),22-decaen-22-amine]	< 50 nM	< 50 nM	0.1 to 50 nM	0.1 to 50 nM	0.1 to 50 nM	< 50 nM	0.1 to 50 nM	> 500 nM	> 500 nM	< 50 nM	A (bin A for very high selectivity, ratio >30-fold)	A (bin A for very high selectivity, ratio >30-fold)	B (bin B for high selectivity, ratio >10-fold)	A (bin A for very high selectivity, ratio >30-fold)
CCn1ncc2c1-c1cnc(N)c(c1)O[C@H](C)c1cc(F)ccc1-n1ccnc1C2 [Example 42, (19R)-3-ethyl-16-fluoro-19-methyl-20-oxa-3,4,9,12,23-pentaazapentacyclo[19.3.1.0^2,^6.0^8,^12.0^13,^18]pentacosa-1(24),2(6),4,8,10,13,15,17,21(25),22-decaen-22-amine]	< 50 nM	< 50 nM	50 to 500 nM	0.1 to 50 nM	0.1 to 50 nM	< 50 nM	0.1 to 50 nM	50 to 500 nM	50 to 500 nM	< 50 nM	A (bin A for very high selectivity, ratio >30-fold)	A (bin A for very high selectivity, ratio >30-fold)	C (bin C for moderate selectivity, ratio ≥1)	B (bin B for high selectivity, ratio >10-fold)

Now from value to molecule, other results behind:

Ki (ALK-wt)	Ki (ROS1-wt)	IC50 [1]	IC50 [2]	IC50 [3]	Ki (ALK L1196M/G1202R)	IC50 [4]	IC50 (Ba/F3 cells TPM3-TRKA)	Ki (TRKA-wt)	Ki (ROS1-G2032R)	SMILES	TPM3-NTRK1-wt/CD74-ROS1-G2032R selectivity ratio [5]	TPM3-NTRK1-wt/CD74-ROS1-wt selectivity ratio [5]	TPM3-NTRK1-wt/EML4-ALK-L1196M-G1202R selectivity ratio [5]	TPM3-NTRK1-wt/EML4-ALK-wt selectivity ratio [5]
< 50 nM	< 50 nM	50 to 500 nM	0.1 to 50 nM	0.1 to 50 nM	< 50 nM	0.1 to 50 nM	> 500 nM	50 to 500 nM	< 50 nM	CCn1ncc2c1-c1cnc(N)c(c1)O[C@H](C)c1cc(F)ccc1-n1ncnc1C2 [Example 38, (19R)-3-ethyl-16-fluoro-19-methyl-20-oxa-3,4,9,11,12,23-hexaazapentacyclo[19.3.1.0^2,^6.0^8,^12.0^13,^18]pentacosa-1(24),2(6),4,8,10,13,15,17,21(25),22-decaen-22-amine]	A (bin A for very high selectivity, ratio >30-fold)	A (bin A for very high selectivity, ratio >30-fold)	C (bin C for moderate selectivity, ratio ≥1)	A (bin A for very high selectivity, ratio >30-fold)
< 50 nM	< 50 nM	50 to 500 nM	0.1 to 50 nM	0.1 to 50 nM	< 50 nM	0.1 to 50 nM	> 500 nM	> 500 nM	< 50 nM	C[C@H]1Oc2cc(cnc2N)-c2c(cnn2C2CCC2)Cn2ncnc2-c2ccc(F)cc21 [Example 39, (19R)-3-cyclobutyl-16-fluoro-19-methyl-20-oxa-3,4,8,9,11,23-hexaazapentacyclo[19.3.1.0^2,^6.0^8,^12.0^13,^18]pentacosa-1(24),2(6),4,9,11,13,15,17,21(25),22-decaen-22-amine]	A (bin A for very high selectivity, ratio >30-fold)	A (bin A for very high selectivity, ratio >30-fold)	B (bin B for high selectivity, ratio >10-fold)	A (bin A for very high selectivity, ratio >30-fold)
< 50 nM	< 50 nM	50 to 500 nM	0.1 to 50 nM	0.1 to 50 nM	50 to 500 nM	0.1 to 50 nM	> 500 nM	> 500 nM	50 to 500 nM	CCc1nsc2c1-c1cnc(N)c(c1)O[C@H](C)c1cc(F)ccc1-c1ncnn1C2 [Example 44, (19R)-3-ethyl-16-fluoro-19methyl-20-oxa-5-thia-4,8,9,11,23-pentaazapentacyclo[19.3.1.0^2,^6.0^8,^12.0^13,^18]pentacosa-1(24),2(6),3,9,11,13,15,17,21(25),22-decaen-22-amine]	A (bin A for very high selectivity, ratio >30-fold)	A (bin A for very high selectivity, ratio >30-fold)	C (bin C for moderate selectivity, ratio ≥1)	A (bin A for very high selectivity, ratio >30-fold)
